Measurements as given in US8063071B2 (GlaxoSmithKline, LLC, priority 2007, dated 2011).
Where a name gives a salt, the structure may show the parent alone.

What was measured:
[1] = test system: human monocyte stimulated cytokine production (TNF-α); assay: Monocyte assay (LPS-stimulated TNF-α production); assay type: cell-based; details: for IC50: 24 h, 200 ng/mL LPS, TNF-α by ELISA; for inhibition at 0.3 µM: read-out: inhibition at 300 nM in the monocyte assay
Summary of the method: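 Human CD14+ monocytes were purified from blood and plated at 1×10^6 cells/mL in RPMI 1640 with 10% FBS. Compound was added 30 min before stimulation with 200 ng/mL LPS (0.1% DMSO final), followed by 24 hrs at 37 C. Supernatant TNF-α was measured by ELISA, and viability by trypan blue exclusion.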

[2] = biological target: T1, Recombinant human IKKβ (residues 1-737) (Homo sapiens, UniProt O14920); assay: IKK2 assay (TR-FRET); assay type: biochemical; details: ATP 1 μM final, read-out: pIC50 against IKK2 (converted)
T1 construct: Recombinant human IKKβ (residues 1-737); GST (C); made in house
T1 sequence (O14920 1-737): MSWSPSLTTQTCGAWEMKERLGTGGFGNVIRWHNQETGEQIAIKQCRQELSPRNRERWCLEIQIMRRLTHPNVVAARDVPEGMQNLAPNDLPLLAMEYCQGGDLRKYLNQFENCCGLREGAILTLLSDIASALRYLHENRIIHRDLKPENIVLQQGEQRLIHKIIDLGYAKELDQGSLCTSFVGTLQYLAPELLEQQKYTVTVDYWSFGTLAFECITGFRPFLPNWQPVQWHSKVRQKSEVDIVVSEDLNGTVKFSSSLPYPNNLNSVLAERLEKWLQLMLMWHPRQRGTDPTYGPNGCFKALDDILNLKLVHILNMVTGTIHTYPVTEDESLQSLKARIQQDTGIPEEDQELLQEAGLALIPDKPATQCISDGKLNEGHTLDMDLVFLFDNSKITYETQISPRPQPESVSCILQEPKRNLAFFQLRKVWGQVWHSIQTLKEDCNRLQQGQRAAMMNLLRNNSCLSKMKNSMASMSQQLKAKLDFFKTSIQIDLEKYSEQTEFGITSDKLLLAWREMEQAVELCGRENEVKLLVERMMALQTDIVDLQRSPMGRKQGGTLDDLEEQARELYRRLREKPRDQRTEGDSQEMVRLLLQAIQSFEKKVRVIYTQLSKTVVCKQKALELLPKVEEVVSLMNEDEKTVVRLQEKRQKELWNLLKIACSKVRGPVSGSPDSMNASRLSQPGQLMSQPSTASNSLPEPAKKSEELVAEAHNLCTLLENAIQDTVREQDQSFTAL
Summary of the method: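 Baculovirus-expressed C-terminal GST-tagged IKKβ (0.5-5 nM final) in HEPES pH 7.4, MgCl2, CHAPS, DTT, BSA with 1.7% DMSO; 25 nM GST-IB substrate and 1 μM ATP, 15 min at room temperature. EDTA stop; phospho-Ser32/36 detected by Eu-antibody/APC-anti-GST TR-FRET, 665/620 nm ratio.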

IC50 [1] | IC50 [2] | SMILES | inhibition at 0.3 µM [1]
≤ 1.5 µM | ≤ 10 µM | CCC(C)CNCc1cc(F)cc(-c2cc(C(N)=O)c3[nH]cc(C4CCN(S(=O)(=O)CC)CC4)c3c2)c1 (stereo not shown) [Example 319, 3-[1-(ethylsulfonyl)-4-piperidinyl]-5-(3-fluoro-5-{[(2-methylbutyl)amino]methyl}phenyl)-1H-indole-7-carboxamide trifluoroacetate] | 
 | ≤ 10 µM | CCS(=O)(=O)N1CCC(c2c[nH]c3c(C(N)=O)cc(-c4csc(CN(C)C(C)c5cccs5)c4)cc23)CC1 (stereo not shown) [Example 81, 3-[1-(ethylsulfonyl)-4-piperidinyl]-5-[5-({methyl[1-(2-thienyl)ethyl]amino}methyl)-3-thienyl]-1H-indole-7-carboxamide trifluoroacetate] | 0 to 60%
≤ 1.5 µM | ≤ 10 µM | CCS(=O)(=O)N1CCC(c2c[nH]c3c(C(N)=O)cc(-c4cccc(CNC(=O)C5CCC5)c4)cc23)CC1 [Example 367, 5-(3-{[(cyclobutylcarbonyl)amino]methyl}phenyl)-3-[1-(ethylsulfonyl)-4-piperidinyl]-1H-indole-7-carboxamide] | 
> 1 µM | ≤ 10 µM | CCS(=O)(=O)N1CCC(c2c[nH]c3c(C(N)=O)cc(-c4ccc(CNCCCOC(C)C)s4)cc23)CC1 [Example 196, 3-[1-(ethylsulfonyl)-4-piperidinyl]-5-{5-[({3-[(1-methylethyl)oxy]propyl}amino)methyl]-2-thienyl}-1H-indole-7-carboxamide] | 
≤ 1.5 µM | ≤ 10 µM | CCS(=O)(=O)N1CCC(c2c[nH]c3c(C(N)=O)cc(-c4csc(CNCC(C)C)c4)cc23)CC1 [Example 105, 3-[1-(ethylsulfonyl)-4-piperidinyl]-5-(5-{[(2-methylpropyl)amino]methyl}-3-thienyl)-1H-indole-7-carboxamide trifluoroacetate] | 
≤ 1.5 µM | ≤ 10 µM | CCN(C)Cc1cc(-c2cc(C(N)=O)c3[nH]cc(C4CCN(S(=O)(=O)C(C)C)CC4)c3c2)cs1 [Example 101, 5-(5-{[ethyl(methyl)amino]methyl}-3-thienyl)-3-{1-[(1-methylethyl)sulfonyl]-4-piperidinyl}-1H-indole-7-carboxamide] | 
> 1 µM | ≤ 10 µM | CCS(=O)(=O)N1CCC(c2c[nH]c3c(C(N)=O)cc(-c4ccnc(NCC(C)C)c4)cc23)CC1 [Example 205, 3-[1-(ethylsulfonyl)-4-piperidinyl]-5-{2-[(2-methylpropyl)amino]-4-pyridinyl}-1H-indole-7-carboxamide trifluoroacetate] | 
≤ 1.5 µM | ≤ 10 µM | CCS(=O)(=O)N1CCC(c2c[nH]c3c(C(N)=O)cc(-c4csc(CN(C)C(C)(C)C)c4)cc23)CC1 [Example 406, 5-(5-{[(1,1-dimethylethyl)(methyl)amino]methyl}-3-thienyl)-3-[1-(ethylsulfonyl)-4-piperidinyl]-1H-indole-7-carboxamide trifluoroacetate] | 
> 1 µM | ≤ 10 µM | CCS(=O)(=O)N1CCC(c2c[nH]c3c(C(N)=O)cc(-c4cnn(CCNC5CCC5)c4)cc23)CC1 [Example 257, 5-{1-[2-(cyclobutylamino)ethyl]-1H-pyrazol-4-yl}-3-[1-(ethylsulfonyl)-4-piperidinyl]-1H-indole-7-carboxamide trifluoroacetate] | 
≤ 1.5 µM | ≤ 10 µM | CCS(=O)(=O)N1CCC(c2c[nH]c3c(C(N)=O)cc(-c4ccc(F)c(CNC5CCC5)c4)cc23)CC1 [Example 275, 5-{3-[(cyclobutylamino)methyl]-4-fluorophenyl}-3-[1-(ethylsulfonyl)-4-piperidinyl]-1H-indole-7-carboxamide trifluoroacetate] | 
≤ 1.5 µM | ≤ 10 µM | CCS(=O)(=O)N1CCC(c2c[nH]c3c(C(N)=O)cc(-c4cccc(CN5CC(C)OC(C)C5)c4)cc23)CC1 (stereo not shown) [Example 9, 5-{3-[(2,6-dimethyl-4-morpholinyl)methyl]phenyl}-3-[1-(ethylsulfonyl)-4-piperidinyl]-1H-indole-7-carboxamide] | 
≤ 1.5 µM | ≤ 10 µM | CCS(=O)(=O)N1CCC(c2c[nH]c3c(C(N)=O)cc(-c4csc(CN(C)C(CO)CO)c4)cc23)CC1 [Example 432, 3-[1-(ethylsulfonyl)-4-piperidinyl]-5-(5-{[[2-hydroxy-1-(hydroxymethyl)ethyl](methyl)amino]methyl}-3-thienyl)-1H-indole-7-carboxamide] | 
 | ≤ 10 µM | CCS(=O)(=O)N1CCC(c2c[nH]c3c(C(N)=O)cc(-c4ccc(CNC5CCCC5)s4)cc23)CC1 [Example 189, 5-{5-[(cyclopentylamino)methyl]-2-thienyl}-3-[1-(ethylsulfonyl)-4-piperidinyl]-1H-indole-7-carboxamide] | 0 to 60%
> 1 µM | ≤ 10 µM | CCOCCNCc1ccc(-c2cc(C(N)=O)c3[nH]cc(C4CCN(S(=O)(=O)CC)CC4)c3c2)s1 [Example 197, 5-[5-({[2-(ethyloxy)ethyl]amino}methyl)-2-thienyl]-3-[1-(ethylsulfonyl)-4-piperidinyl]-1H-indole-7-carboxamide] | 
> 1 µM | ≤ 10 µM | CCS(=O)(=O)N1CCC(c2c[nH]c3c(C(N)=O)cc(-c4ccc(OC)c(CN5CCCC5)c4)cc23)CC1 [Example 262, 3-[1-(ethylsulfonyl)-4-piperidinyl]-5-[4-(methyloxy)-3-(1-pyrrolidinylmethyl)phenyl]-1H-indole-7-carboxamide trifluoroacetate] | 
≤ 1.5 µM | ≤ 10 µM | CCCN(C)Cc1cc(-c2cc(C(N)=O)c3[nH]cc(C4CCN(S(=O)(=O)C(C)C)CC4)c3c2)cs1 [Example 100, 3-{1-[(1-methylethyl)sulfonyl]-4-piperidinyl}-5-(5-{[methyl(propyl)amino]methyl}-3-thienyl)-1H-indole-7-carboxamide trifluoroacetate] | 
> 1 µM | ≤ 10 µM | CCS(=O)(=O)N1CCC(c2c[nH]c3c(C(N)=O)cc(-c4ccc(C5CNCCN5)cc4)cc23)CC1 (stereo not shown) [Example 299, 3-[1-(ethylsulfonyl)-4-piperidinyl]-5-[4-(2-piperazinyl)phenyl]-1H-indole-7-carboxamide trifluoroacetate] | 
≤ 1.5 µM | ≤ 10 µM | CC[C@H](C)NCc1cccc(-c2cc(C(N)=O)c3[nH]cc(C4CCN(S(=O)(=O)CC)CC4)c3c2)c1 [Example 157, 3-[1-(ethylsulfonyl)-4-piperidinyl]-5-[3-({[(1S)-1-methylpropyl]amino}methyl)phenyl]-1H-indole-7-carboxamide acetate] | 
≤ 1.5 µM | ≤ 10 µM | CCC(C)CNCc1ccc(-c2cc(C(N)=O)c3[nH]cc(C4CCN(S(=O)(=O)CC)CC4)c3c2)s1 (stereo not shown) [Example 182, 3-[1-(ethylsulfonyl)-4-piperidinyl]-5-(5-{[(2-methylbutyl)amino]methyl}-2-thienyl)-1H-indole-7-carboxamide] | 
≤ 1.5 µM | ≤ 10 µM | CC(C)S(=O)(=O)N1CCC(c2c[nH]c3c(C(N)=O)cc(-c4csc(CN5CC[C@H](O)C5)c4)cc23)CC1 [Example 395, 5-(5-{[(3S)-3-hydroxy-1-pyrrolidinyl]methyl}-3-thienyl)-3-{1-[(1-methylethyl)sulfonyl]-4-piperidinyl}-1H-indole-7-carboxamide] | 
≤ 1.5 µM | ≤ 10 µM | CCS(=O)(=O)N1CCC(c2c[nH]c3c(C(N)=O)cc(-c4csc(CN(C)CCC#N)c4)cc23)CC1 [Example 43, 5-(5-{[(2-cyanoethyl)(methyl)amino]methyl}-3-thienyl)-3-[1-(ethylsulfonyl)-4-piperidinyl]-1H-indole-7-carboxamide trifluoroacetate] | 
> 1 µM | ≤ 10 µM | CCS(=O)(=O)N1CCC(c2c[nH]c3c(C(N)=O)cc(-c4csc(CN5CCC[C@H]5C(F)(F)F)c4)cc23)CC1 [Example 393, 3-[1-(ethylsulfonyl)-4-piperidinyl]-5-(5-{[(2S)-2-(trifluoromethyl)-1-pyrrolidinyl]methyl}-3-thienyl)-1H-indole-7-carboxamide trifluoroacetate] | 
≤ 1.5 µM | ≤ 10 µM | CCS(=O)(=O)N1CCC(c2c[nH]c3c(C(N)=O)cc(-c4csc(CN(C)C5CCN(C)CC5)c4)cc23)CC1 [Example 42, 3-[1-(ethylsulfonyl)-4-piperidinyl]-5-(5-{[methyl(1-methyl-4-piperidinyl)amino]methyl}-3-thienyl)-1H-indole-7-carboxamide trifluoroacetate] | 
